One series has as its system factor V DNA. The series is described as follows: Real time PCR of factor V DNA with modified FRET donor probes (crossing point). It counts as biochemical. The settings on record: LIGHTCYCLER 1.2, 106 copies of plasmid, 200 nM FRET probes, 640 nm channel. The method, then: (§1) A quantitative real time PCR of factor V DNA with subsequent melting curve analysis was carried out on a LIGHTCYCLER 1.2 instrument (Roche Diagnostics GmbH) in order to analyse the effect of phosphate mimetics on hybridization. Primers were used in combination with a pair of fluorescein/LIGHTCYCLER Red 640 FRET hybridization probes. The primers and the 5′ LIGHTCYCLER Red 640 probe were kept constant. The various 3′ fluorescein probes modified on the phosphate from example 4 and the unmodified fluorescein probe as a reference were used as FRET donor probes. The effect on the crossing point which is a measure for the amplification efficiency and the effect on the melting point were evaluated.
20 μl of a PCR reaction mixture was prepared as follows for the amplification of a factor V DNA fragment.
106 copies of a plasmid which contains the factor V wild type gene and mutants (Gene Bank Accession No. M 014335)
500 nM each primers having the SEQ ID NO: 1 and 2
200 nM each FRET hybridization probes having the SEQ ID NO: 3 and 4
The LIGHTCYCLER DNA Master Hyb Probes Kit (Roche Applied Science, Cat. No. 2158825) was used for all other PCR components according to the manufacturer's instructions.
The following sequences were used as primers and probes: […]
The following temperature program was used for the amplification on the LIGHTCYCLER 1.2 (Roche Applied Science).
The real time monitoring was carried out over 45 cycles using the 2nd derivative threshold method in which the fluorescence signal was measured in a detection channel that is specific for the LIGHTCYCLER Red 640 emission (at 640 nm) and the arithmetic background correction mode was used to normalize the initial signal.
(§2) The crossing points are shown in the following table as a measure for the amplification efficiency when using different modified donor probes.

The next series concerns factor V mutant sequence. As to the kind of experiment: Melting curve analysis of donor probes, mutant. It counts as binding. The settings on record: melting temperature of donor probe for factor V mutant sequence; in °C (unit assumed). As for the experimental part: A quantitative real time PCR of factor V DNA with subsequent melting curve analysis was carried out on a […] 1.2 instrument (Roche Diagnostics GmbH) in order to analyse the effect of phosphate mimetics on hybridization. Primers were used in combination with a pair of fluorescein/[…] Red 640 FRET hybridization probes. The primers and the 5′ […] Red 640 probe were kept constant. […] The effect on the crossing point which is a measure for the amplification efficiency and the effect on the melting point were evaluated.
After the amplification a melting curve analysis was carried out according to the instructions of the […] manual (Roche Applied Sciences).
(§3) The following temperature program was used:
(§4) The absolute fluorescence signals are measured as above in the 640 nm channel and subsequently the first derivative was calculated from this.

Series [1] deals with factor V wild type sequence. The series is described as follows: Melting curve analysis of donor probes, wild type. It counts as binding. The settings on record: melting temperature of donor probe for factor V wild type sequence; in °C (unit assumed). The method, then: as §1
After the amplification a melting curve analysis was carried out according to the instructions of the LIGHTCYCLER manual (Roche Applied Sciences).
as §3, §4, §2

A short description of series [2]: Stability of dinucleotides at different temperatures and pH, reverse phase HPLC. It counts as physicochemical. Conditions: for stability: pH 7.0, 8.0 and 9.0, 24 h at rt, 1 h at 95° C. As for the experimental part: dA(P(═NSO2PhNHAc)dT was synthesized and purified according to example 1) dAdT was also synthesized according to example 1, but standard oxidizers were used (0.02 M iodine in THF).
The dimers were exposed for different times and temperatures in 10 mM Tris buffer at different pH values 7.0, 8.0, and 9.0. Samples were left at room temperature (approx. 24° C.) for 24 h or at 95° C. for 60 min respectively 16 h. 150 μL aliquots were removed before and after the experiment and 100 μL volumes were injected on the HPLC.
The decomposition was monitored by reverse phase HPLC on an analytical X-Bridge column (2.5 μm, 4.6×50 mm i.d.) with a Waters 2690 separation module. Detection was carried out with a Waters 2996 PAD Detector (260 nm). A mobile phase of 0.1 M triethylammonium acetate (pH 6.8) pumped with a 95% gradient of acetonitrile at flow rate of 1.0 ml/min was used. The destruction rate of the dimers was judged by monitoring the retention time rt of the dimer signal (Software Millenium, Waters) and determining whether additional peaks with retention times different than that, of the nucleotide dimer occur.

[3] abbreviates: pH 7.0, 10 mM Tris, 1 h at 95° C. (dry oven).
[4] abbreviates: pH 7.0, 10 mM Tris, 16 h at 95° C. (dry oven).
The mark [5] stands for this setting: pH 7.0, 10 mM Tris, 24 h at rt (24° C.).
[6] abbreviates: pH 7.0, 10 mM Tris, starting solution.
Setting [7] is: pH 8.0, 10 mM Tris, 1 h at 95° C. (dry oven).
Setting [8] is: pH 8.0, 10 mM Tris, 16 h at 95° C. (dry oven).
The mark [9] stands for this setting: pH 8.0, 10 mM Tris, 24 h at rt (24° C.).
Setting [10] is: pH 8.0, 10 mM Tris, starting solution.
[11] abbreviates: pH 9.0, 10 mM Tris, 1 h at 95° C. (dry oven).
Setting [12] is: pH 9.0, 10 mM Tris, 16 h at 95° C. (dry oven).
[13] abbreviates: pH 9.0, 10 mM Tris, 24 h at rt (24° C.).
[14] abbreviates: pH 9.0, 10 mM Tris, starting solution.

Strand notation (5' to 3'): a small letter for the sugar, then the base; units joined by * are phosphorothioate-linked, units joined directly phosphodiester-linked; [ ] holds rarer units or linkages, { } end groups; capitals alone tell only the bases. [PNAc] = P=N-pPh-NAc phosphoramidate mimetic linkage (p1); {Fluorescein} = fluorescein label; d = 2'-deoxy (DNA)

The text below walks through data of US7741472B2, “Polynucleotide containing a phosphate mimetic” (Roche Diagnostics Operations, Inc., priority 2005, dated 2010).

“5′ AATACCTGTATTCCTCGCCTGTC-fluorescein-3′ (ref): unmodified fluorescein FRET donor probe SEQ ID NO: 4, used as a reference (DNA dAdAdTdAdCdCdTdGdTdAdTdTdCdCdTdCdGdCdCdTdGdTdC-{Fluorescein}) [reference compound]”: the “Cp (crossing point, measure for the amplification efficiency)” value (from here on “Cp”) with factor V DNA came out at 22.11. In addition, the Tm mt in the series on factor V mutant sequence came out at 56.98. Besides, the Tm wt in series [1] came to 64.92.

For “5′ AATACCTGTATTCCTCGCCTGTp1C fluorescein-3′: Example 4 fluorescein probe SEQ ID NO: 4; p1 is a P = N-pPh-NAc mimetic (DNA dAdAdTdAdCdCdTdGdTdAdTdTdCdCdTdCdGdCdCdTdGdT[PNAc]dC-{Fluorescein})”, the “Cp” value in the series on factor V DNA was found to be 22.61. In the series on factor V mutant sequence, the Tm mt came out at 56.26. Besides, the Tm wt in series [1] is on record as 64.32.

On to “5′ AATACCTGTATTp1Cp1Cp1Tp1Cp1Gp1Cp1Cp1Tp1Gp1Tp1C-fluorescein-3′: Example 4 fluorescein probe SEQ ID NO: 4, multiply modified; p1 is a P = N-pPh-NAc mimetic (DNA dAdAdTdAdCdCdTdGdTdAdTdT[PNAc]dC[PNAc]dC[PNAc]dT[PNAc]dC[PNAc]dG[PNAc]dC[PNAc]dC[PNAc]dT[PNAc]dG[PNAc]dT[PNAc]dC-{Fluorescein})”, for which, in the series on factor V DNA, the “Cp” value came to 21.91. Besides, the Tm mt in the series on factor V mutant sequence is 52.14. In series [1], the Tm wt was 60.74.

Consider “5′ AATACCTGp1TATTCCTCp1GCCTGTC-fluorescein-3′: Example 4 fluorescein probe SEQ ID NO: 4, two-fold modified; p1 is a P = N-pPh-NAc mimetic (DNA dAdAdTdAdCdCdTdG[PNAc]dTdAdTdTdCdCdTdC[PNAc]dGdCdCdTdGdTdC-{Fluorescein})”, for which, in the series on factor V DNA, the “Cp” value is recorded as 22.26. Further, in the series on factor V mutant sequence, the Tm mt is listed as 55.89. The Tm wt in series [1] is listed as 64.28.

Take “5′ Ap1ATACCTGTATTCCTCGCCTGTC fluorescein-3′: Example 4 fluorescein probe SEQ ID NO: 4; p1 is a P = N-pPh-NAc mimetic (DNA dA[PNAc]dAdTdAdCdCdTdGdTdAdTdTdCdCdTdCdGdCdCdTdGdTdC-{Fluorescein})”: the “Cp” value with factor V DNA worked out at 22.51. For the same substance, the Tm mt with factor V mutant sequence came out at 56.80. Besides, in series [1], the Tm wt worked out at 64.80.

Consider “5′ Ap1Ap1Tp1ACCTGTATp1Tp1Cp1CTCGCCTp1Gp1Tp1C-fluorescein-3′: Example 4 fluorescein probe SEQ ID NO: 4, multiply modified; p1 is a P = N-pPh-NAc mimetic (DNA dA[PNAc]dA[PNAc]dT[PNAc]dAdCdCdTdGdTdAdT[PNAc]dT[PNAc]dC[PNAc]dCdTdCdGdCdCdT[PNAc]dG[PNAc]dT[PNAc]dC-{Fluorescein})”, for which the “Cp” value in the series with factor V DNA came out at 22.00. In the series on factor V mutant sequence, the Tm mt was found to be 52.83. Also, the Tm wt in series [1] is on record as 61.40.

Take “5′ Ap1Ap1Tp1Ap1Cp1Cp1Tp1Gp1Tp1Ap1Tp1TCCTCGCCTGTC-fluorescein-3′: Example 4 fluorescein probe SEQ ID NO: 4, multiply modified; p1 is a P = N-pPh-NAc mimetic (DNA dA[PNAc]dA[PNAc]dT[PNAc]dA[PNAc]dC[PNAc]dC[PNAc]dT[PNAc]dG[PNAc]dT[PNAc]dA[PNAc]dT[PNAc]dTdCdCdTdCdGdCdCdTdGdTdC-{Fluorescein})”: the “Cp” value with factor V DNA was determined as 21.40. Moreover, the Tm mt in the series on factor V mutant sequence was 52.19. In addition, the Tm wt in series [1] is 60.69.

As for “dA(P(═NSO2PhNHAc)dT [dA(P(=NSO2PhNHAc)dT]”, the decomposition entry in series [2] (after 16 h at 95° C. at pH 7.0) is “started decomposing”. Moreover, the “rtHPLC (retention time of the dimer signal)” value (“rtHPLC” for short) is given as “rtHPLC = 2.99” in series [2] (setting [3]); “rtHPLC = 2.99” in series [2] (setting [4]); “rtHPLC = 2.93” in series [2] (setting [5]); “rtHPLC = 2.93” in series [2] (setting [6]); “rtHPLC = 2.92” in series [2] (setting [7]); “rtHPLC = 2.92” in series [2] (setting [8]). Moreover, the “rtHPLC” value was “rtHPLC = 2.96” in series [2] (setting [9]); “rtHPLC = 2.96” in series [2] (setting [10]); “rtHPLC = 2.95” in series [2] (setting [11]); “rtHPLC = 2.95” in series [2] (setting [12]); “rtHPLC = 2.92” in series [2] (setting [13]); “rtHPLC = 2.92” in series [2] (setting [14]). Moreover, the “additional peaks (decomposition)” value in series [2] (setting [4]) was 2 new peaks t = 1.2, 2.0. Also, in series [2], the stability result is “stable”.

In the case of dAdT, in series [2] (after 16 h at pH 7.0 and pH 8.0), the decomposition entry was “started decomposing”. Besides, the “rtHPLC” value is listed as “rtHPLC = 2.48” in series [2] (setting [3]); “rtHPLC = 2.42” in series [2] (setting [4]); “rtHPLC = 2.39” in series [2] (setting [5]); “rtHPLC = 2.39” in series [2] (setting [6]); “rtHPLC = 2.42” in series [2] (setting [7]); “rtHPLC = 2.41” in series [2] (setting [8]). The “rtHPLC” value in series [2] (setting [9]) was “rtHPLC = 2.38”; in series [2] (setting [10]) it was “rtHPLC = 2.38”; in series [2] (setting [11]), “rtHPLC = 2.42”; in series [2] (setting [12]), “rtHPLC = 2.43”; in series [2] (setting [13]), “rtHPLC = 2.41”; in series [2] (setting [14]) it was “rtHPLC = 2.41”. In addition, the “additional peaks (decomposition)” value in series [2] (setting [4]) is listed as 1 new peak t = 6.2; in series [2] (setting [8]), 1 new peak 6.2. Further, the stability entry in series [2] is “stable”.
